This experiment deals with T1, F508delCFTR (Homo sapiens, UniProt P13569, DEL508-508).
T1 construct: expressed in transfected cells; host or cells: CFBE41o- human lung-derived epithelial cells (CFBE4lo-F508delCFTR-HRP), doxycycline-inducible
Description: Cell Surface Expression-Horse Radish Peroxidase (CSE-HRP) Assay.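 On Maximum % activity (with co-corrector): co-corrector and positive control are both the same reference corrector at 2 µM.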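 On Maximum % activity (without co-corrector): percent of the 2 µM on-plate positive control corrector response above DMSO.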 Type of experiment: cell-based. The conditions noted are these: for Emax / Maximum % activity (with co-corrector): maximum at any tested concentration, normalized to on-plate positive control; for Emax: read-out: Maximum % activity (without co-corrector). How it is done:
Cell Surface Expression-Horse Radish Peroxidase (CSE-HRP) Assay;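 on Maximum % activity (with co-corrector): co-corrector and positive control are both the same reference corrector at 2 µM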;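 on Maximum % activity (without co-corrector): percent of the 2 µM on-plate positive control corrector response above DMSO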
The development was achieved by expressing the F508delCFTR mutation along with a horseradish peroxidase (HRP) in the fourth exofacial loop, and then measuring the HRP activity using luminescence readout from these cells, CFBE4lo-F508delCFTR-HRP, that were incubated overnight with the test corrector compounds, either without or with the co-corrector. […] The test compounds were then added either without or with a co-corrector at the required concentrations and further incubated for 18-24 hours at 33° C. The highest concentration tested was 20 μM with an 8-point concentration response curve using a 3-fold dilution in both the test compound without or with the co-corrector. Three replicate plates were run to determine one EC50. All plates contained negative controls (dimethyl sulfoxide, DMSO) and positive control (2 μM of 3-[(2R,4R)-4-({[1-(2,2-difluoro-1,3-benzodioxol-5-yl)cyclopropyl]carbonyl}amino)-7-methoxy-3,4-dihydro-2H-chromen-2-yl]benzoic acid) as well as on-plate concentration response of the positive control. […] The raw counts from the experiment were analyzed using Accelrys® Assay Explorer v3.3.
1−[3*SDPositive Control+3*SDNegative Control/Absolute(MeanPositive Control−MeanNegative Control)]
wherein “SD” is standard deviation.
The % activity measured at each of the 8 test concentrations of the test compound added either without or with a co-corrector (2 μM of 3-[(2R,4R)-4-({[1-(2,2-difluoro-1,3-benzodioxol-5-yl)cyclopropyl]carbonyl}amino)-7-methoxy-3,4-dihydro-2H-chromen-2-yl]benzoic acid) was normalized to the on-plate positive control using the following formulae:
% activity(Test compound without co-corrector)=[(test compound without co-corrector response−DMSO response)/(positive control response−DMSO response)]*100
% activity(Test compound with co-corrector)=[(test compound with co-corrector response−DMSO response)/(positive control response−DMSO response)]*100
The maximum % activity achieved for the test compound either without or with a co-corrector at any tested concentration is presented in Table 4 along with the respective EC50's calculated using the following general sigmoidal curve with variable Hill slope equation (described as Model 42 in the Accelrys® Assay Explorer v3.3 software):
General sigmoidal curve with concentration, response, top, bottom, EC50 and Hill slope. This model describes a sigmoidal curve with an adjustable baseline, a. The equation can be used to fit curves where response is either increasing or decreasing with respect to the independent variable, “x”.
“x” is a concentration of drug under test. “y” is the response. “a” is the maximum response, and “d” is the minimum response “c” is the inflection point (EC50) for the curve. That is, “y” is halfway between the lower and upper asymptotes when x=c. “b” is the slope-factor or Hill coefficient. The sign of b is positive when the response increases with increasing dose and is negative when the response decreases with increasing dose (inhibition).

The mark [1] stands for this setting: test compound without co-corrector.
The mark [2] stands for this setting: test compound without co-corrector, read-out: EC50 (without co-corrector).
[3] abbreviates: with co-corrector (2 μM of 3-[(2R,4R)-4-({[1-(2,2-difluoro-1,3-benzodioxol-5-yl)cyclopropyl]carbonyl}amino)-7-methoxy-3,4-dihydro-2H-chromen-2-yl]benzoic acid).
Where [4] appears, read: with co-corrector (2 μM of 3-[(2R,4R)-4-({[1-(2,2-difluoro-1,3-benzodioxol-5-yl)cyclopropyl]carbonyl}amino)-7-methoxy-3,4-dihydro-2H-chromen-2-yl]benzoic acid), read-out: EC50 (with co-corrector).

Like-named read-outs stand apart in the source and are kept apart here.

T1 sequence (P13569 with tags, fused parts or gaps DEL508-508): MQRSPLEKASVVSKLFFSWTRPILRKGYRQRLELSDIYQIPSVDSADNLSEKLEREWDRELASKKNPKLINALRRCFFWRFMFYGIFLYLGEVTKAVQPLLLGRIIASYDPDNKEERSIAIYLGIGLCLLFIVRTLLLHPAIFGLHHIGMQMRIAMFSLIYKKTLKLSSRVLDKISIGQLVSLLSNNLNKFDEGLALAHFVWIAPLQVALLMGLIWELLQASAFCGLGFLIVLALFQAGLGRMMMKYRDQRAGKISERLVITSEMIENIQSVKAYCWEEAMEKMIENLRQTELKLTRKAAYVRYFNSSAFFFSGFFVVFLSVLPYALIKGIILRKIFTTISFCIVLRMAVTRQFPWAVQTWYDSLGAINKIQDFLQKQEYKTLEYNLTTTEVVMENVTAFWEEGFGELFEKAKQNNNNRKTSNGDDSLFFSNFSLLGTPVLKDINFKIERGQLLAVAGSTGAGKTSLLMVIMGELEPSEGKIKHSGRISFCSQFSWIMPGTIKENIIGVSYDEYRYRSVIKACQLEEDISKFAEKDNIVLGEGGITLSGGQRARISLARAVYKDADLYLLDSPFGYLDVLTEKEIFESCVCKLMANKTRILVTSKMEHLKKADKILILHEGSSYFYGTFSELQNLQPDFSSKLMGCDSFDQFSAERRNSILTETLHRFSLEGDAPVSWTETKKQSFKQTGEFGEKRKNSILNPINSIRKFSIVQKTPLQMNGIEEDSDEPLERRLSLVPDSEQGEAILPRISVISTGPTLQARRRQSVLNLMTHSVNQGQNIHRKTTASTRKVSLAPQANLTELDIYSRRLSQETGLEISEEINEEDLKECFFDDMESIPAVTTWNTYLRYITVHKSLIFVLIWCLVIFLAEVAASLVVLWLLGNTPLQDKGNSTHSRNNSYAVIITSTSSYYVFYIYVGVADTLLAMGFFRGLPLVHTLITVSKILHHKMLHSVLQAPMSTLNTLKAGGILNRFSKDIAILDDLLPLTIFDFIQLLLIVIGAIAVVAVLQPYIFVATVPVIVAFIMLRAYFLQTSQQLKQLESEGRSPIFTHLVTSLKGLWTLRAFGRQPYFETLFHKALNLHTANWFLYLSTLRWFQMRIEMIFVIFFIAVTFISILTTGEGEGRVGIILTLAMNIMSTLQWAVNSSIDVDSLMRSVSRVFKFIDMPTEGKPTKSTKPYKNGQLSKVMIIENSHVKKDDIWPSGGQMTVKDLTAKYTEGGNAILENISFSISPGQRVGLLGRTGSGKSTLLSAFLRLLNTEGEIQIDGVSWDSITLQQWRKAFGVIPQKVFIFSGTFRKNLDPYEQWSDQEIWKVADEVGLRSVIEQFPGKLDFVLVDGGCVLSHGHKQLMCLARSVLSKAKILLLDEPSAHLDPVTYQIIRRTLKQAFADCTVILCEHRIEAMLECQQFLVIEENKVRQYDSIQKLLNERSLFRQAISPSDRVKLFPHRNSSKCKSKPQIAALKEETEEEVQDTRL

As for `COc1cc(C(F)(F)F)ccc1CN[C@@H]1[C@@H](C(C)(C)C)[C@H](C(=O)O)N(C(=O)C2CCCCC2)[C@@H]1c1ccccc1` (racemic) [III-35], the Emax under setting [1] was 100 to 200%. For the same compound, the EC50 runs as follows: under setting [2], 1 to 10 µM; under setting [4], under 1 µM. Moreover, the “Maximum % activity (with co-corrector)” value under setting [3] was “+++ (≥350)”.

On to `CN(C)c1ncc(C(F)(F)F)cc1CN[C@@H]1[C@@H](C(C)(C)C)[C@H](C(=O)O)N(C(=O)C2CCCCC2)[C@@H]1c1ccccc1` (racemic) [III-36], for which the Emax under setting [1] was under 100%. The EC50 is, setting by setting: under setting [2], over 10 µM; under setting [4], 1 to 10 µM. Also, the “Maximum % activity (with co-corrector)” value under setting [3] is “++ (≥150 and <350)”.

For the compound `COc1ccc(Cl)cc1CN[C@@H]1[C@@H](C)[C@H](C(=O)O)N(C(=O)N(C(C)C)C(C)C)[C@@H]1c1ccccc1` (racemic) [III-37], the Emax under setting [1] is under 100%. Moreover, the EC50 reads like this: under setting [2], over 10 µM; under setting [4], 1 to 10 µM. Also, the “Maximum % activity (with co-corrector)” value under setting [3] was “++ (≥150 and <350)”.

Take `CC(C)OC(=O)N1[C@H](c2ccccc2)[C@H](Nc2cc(C(F)(F)F)ccn2)[C@@H](C(C)(C)C)[C@@H]1C(=O)O` (racemic) [III-38]: the Emax under setting [1] was under 100%. Also, the concentration giving a half-maximal response (EC50) is 1 to 10 µM under setting [2] and 1 to 10 µM under setting [4]. Also, the “Maximum % activity (with co-corrector)” value under setting [3] is listed as “+++ (≥350)”.

For `COc1cc(Cl)ccc1CN[C@@H]1[C@@H](C)[C@H](C(=O)O)N(C(=O)N(C(C)C)C(C)C)[C@@H]1c1ccccc1` (racemic) [III-39], the Emax under setting [1] was under 100%. The EC50 runs as follows: under setting [2], over 10 µM; under setting [4], 1 to 10 µM. In addition, under setting [3], the “Maximum % activity (with co-corrector)” value is “++ (≥150 and <350)”.

Take `COc1ccc(C(F)(F)F)cc1CN[C@@H]1[C@@H](C(C)(C)C)[C@H](C(=O)O)N(C(=O)C2CCCCC2)[C@@H]1c1cccnc1N(C)C` (racemic) [III-41]: the Emax under setting [1] was in the range of 100 to 200%. Moreover, the EC50 fell in the range of 1 to 10 µM under setting [2] and 1 to 10 µM under setting [4]. The “Maximum % activity (with co-corrector)” value under setting [3] was “+++ (≥350)”.

For `CC(C)(C)[C@@H]1[C@@H](Nc2cc(C#N)ccn2)[C@@H](c2ccccc2)N(C(=O)C2CCCCC2)[C@H]1C(=O)O` (racemic) [III-42], under setting [1], the Emax is under 100%. Moreover, the EC50 under setting [2] lay in the range of 1 to 10 µM and the concentration for a half-maximal effect (EC50) under setting [4] lay in the range of 1 to 10 µM. Besides, the “Maximum % activity (with co-corrector)” value under setting [3] is “++ (≥150 and <350)”.

As for `CC(C)OC(=O)N1[C@H](c2ccccc2)[C@H](Nc2cccc(C(F)(F)F)n2)[C@@H](C(C)(C)C)[C@@H]1C(=O)O` (racemic) [III-44], the Emax under setting [1] was under 100%. In addition, the EC50 under setting [2] lay within 1 to 10 µM and the EC50 under setting [4] fell in the range of 1 to 10 µM. Also, under setting [3], the “Maximum % activity (with co-corrector)” value is “++ (≥150 and <350)”.

In the case of `COc1ccccc1[C@@H]1[C@H](NCc2cccc3c2OC(F)(F)O3)[C@@H](C(C)(C)C)[C@H](C(=O)O)N1C(=O)C1CCCCC1` (racemic) [III-45], under setting [1], the Emax was under 100%. In addition, the EC50 lay in the range of 1 to 10 µM under setting [2] and 1 to 10 µM under setting [4]. The “Maximum % activity (with co-corrector)” value under setting [3] is “++ (≥150 and <350)”.

`Cc1cc(C(F)(F)F)cc(N[C@@H]2[C@@H](C(C)(C)C)[C@H](C(=O)O)N(C(=O)C3CCCCC3)[C@@H]2c2cccnc2N(C)C)n1` (racemic) [III-46]: the Emax under setting [1] is under 100%. Moreover, the concentration for a half-maximal effect (EC50) reads like this: under setting [2], 1 to 10 µM; under setting [4], 1 to 10 µM. Moreover, the “Maximum % activity (with co-corrector)” value under setting [3] is “++ (≥150 and <350)”.

For `Cc1cc(C(F)(F)F)cc(N[C@H]2C(c3ccccc3)N(C(=O)N(C(C)C)C(C)C)[C@@H](C(=O)O)[C@@H]2C2CC2)n1` (mixture of isomers) [III-47], the Emax under setting [1] is under 100%. For the same compound, the EC50 under setting [2] lay in the range of 1 to 10 µM and the EC50 under setting [4] is 1 to 10 µM. Moreover, the “Maximum % activity (with co-corrector)” value under setting [3] was “++ (≥150 and <350)”.

Consider `COc1ccc(Cl)cc1CN[C@@H]1[C@@H](C2CC2)[C@H](C(=O)O)N(C(=O)N(C(C)C)C(C)C)[C@@H]1c1ccccc1` (racemic) [III-48], for which the Emax under setting [1] was under 100%. The EC50 runs as follows: under setting [2], over 10 µM; under setting [4], 1 to 10 µM. In addition, the “Maximum % activity (with co-corrector)” value under setting [3] is “++ (≥150 and <350)”.

The term EC50 denotes the concentration at which the effect is half-maximal.

For the origin of these results see patent US20180099931A1 (AbbVie S.à.r.l., priority 2016, published 2018).
